From US20260217687A1 (NeoPhore Limited, priority 2023, published 2026)

molecular target: T1, recombinant N-terminal MLH1 (residues 15-340) (Homo sapiens, UniProt P40692); test: Fluorescence Polarisation Assay for MLH1; assay type: binding; conditions: 100 nM N-terminal MLH1, 5 nM probe compound
T1 construct: recombinant N-terminal MLH1 (residues 15-340)
T1 sequence (P40692 15-340): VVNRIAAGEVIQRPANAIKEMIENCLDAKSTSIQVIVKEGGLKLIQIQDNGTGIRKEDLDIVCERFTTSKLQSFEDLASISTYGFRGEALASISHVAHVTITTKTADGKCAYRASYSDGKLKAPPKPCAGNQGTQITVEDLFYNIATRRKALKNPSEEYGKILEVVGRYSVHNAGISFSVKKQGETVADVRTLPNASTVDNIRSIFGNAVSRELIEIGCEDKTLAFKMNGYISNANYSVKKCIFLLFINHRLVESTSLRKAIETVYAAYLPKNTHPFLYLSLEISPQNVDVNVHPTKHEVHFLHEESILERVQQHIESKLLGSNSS
Summary of the method: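 Fluorescence polarisation displacement: 100 nM MLH1 (15-340) preincubated 30 min at room temperature with compound, then 5 nM rhodamine-labelled probe added and read immediately. Buffer 25 mM HEPES pH 7.5, 250 mM NaCl, 10 mM MgCl2, 0.01% Triton X-100, 5 mM DTT; normalised to no-inhibitor and no-enzyme controls.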

Compound | IC50 [nM]
O=C(c1c(O)cc(C(F)F)cc1OCc1ccccc1)N1Cc2cnc(N3CCOCC3)cc2C1 [Example 27.9, (2-(Benzyloxy)-4-(difluoromethyl)-6-hydroxyphenyl)(6-morpholino-1,3-dihydro-2H-pyrrolo[3,4-c]pyridin-2-yl)methanone] | 100 to 1000
O=C(c1c(O)cc(C(F)F)cc1OCc1ccc2cnccc2c1)N1CCc2cccc(N[C@H]3CCOC3)c2C1 [Example 28.2, (S)-(4-(Difluoromethyl)-2-hydroxy-6-(isoquinolin-6-ylmethoxy)phenyl)(8-((tetrahydrofuran-3-yl)amino)-3,4-dihydroisoquinolin-2(1H)-yl)methanone] | < 100
CN1CC(Oc2ccc3c(c2)CN(C(=O)c2c(O)cc(C#N)cc2OCc2ccccc2)C3)C1 [Example 10.32, 3-(Benzyloxy)-5-hydroxy-4-(5-((1-methylazetidin-3-yl)oxy)isoindoline-2-carbonyl)benzonitrile] | 100 to 1000
O=C(c1c(O)cc(C(F)F)cc1OCc1ccccc1)N1CCc2cccc(NC3COC3)c2C1 [Example 4.7, (2-(Benzyloxy)-4-(difluoromethyl)-6-hydroxyphenyl)(8-(oxetan-3-ylamino)-3,4-dihydroisoquinolin-2(1H)-yl) methanone] | 100 to 1000
O=C(c1c(O)cc(Cl)cc1OCc1ccccc1)N1Cc2cccc(N[C@H]3CCOC3)c2C1 [Example 8, (S)-(2-(Benzyloxy)-4-chloro-6-hydroxyphenyl)(4-((tetrahydrofuran-3-yl)amino)isoindolin-2-yl)methanone] | 100 to 1000
CN(C)Cc1ccc2c(n1)CN(C(=O)c1c(O)cc(C(F)F)cc1OCc1ccccc1)C2 [Example 4.52, (2-(Benzyloxy)-4-(difluoromethyl)-6-hydroxyphenyl)(2-((dimethylamino)methyl)-5,7-dihydro-6H-pyrrolo[3,4-b]pyridin-6-yl)methanone] | 100 to 1000
CN1CC[C@H](Oc2ccc3c(c2)CN(C(=O)c2c(O)cc(C(F)F)cc2OCc2ccccc2)CC3)C1 [Example 4.68, (S)-(2-(Benzyloxy)-4-(difluoromethyl)-6-hydroxyphenyl)(7-((1-methylpyrrolidin-3-yl)oxy)-3,4-dihydroisoquinolin-2(1H)-yl)methanone] | 100 to 1000
CC(=O)N1CC(Nc2cccc3c2CN(C(=O)c2c(O)cc(C(F)F)cc2OCc2ccccc2)C3)C1 [Example 4.3, 1-(3-((2-(2-(Benzyloxy)-4-(difluoromethyl)-6-hydroxybenzoyl)isoindolin-4-yl)amino)azetidin-1-yl)ethan-1-one] | 100 to 1000
CN1CCC(Oc2ccc3c(c2)CCN(C(=O)c2c(O)cc(C(F)F)cc2OCc2ccccc2)CC3)CC1 [Example 27.7, (2-(Benzyloxy)-4-(difluoromethyl)-6-hydroxyphenyl)(7-((1-methylpiperidin-4-yl)oxy)-1,2,4,5-tetrahydro-3H-benzo[d]azepin-3-yl)methanone] | 100 to 1000
COc1cccc2c1CN(C(=O)c1c(O)cc(C#N)cc1OCc1ccccc1)C2 [Example 10.11, 3-(Benzyloxy)-5-hydroxy-4-(4-methoxyisoindoline-2-carbonyl)benzonitrile] | 1000 to 10000
CN1CCN(CCOc2ccc3c(c2)CN(C(=O)c2c(O)cc(C(F)F)cc2OCc2ccccc2)C3)CC1 [Example 4.71, (2-(Benzyloxy)-4-(difluoromethyl)-6-hydroxyphenyl) (5-(2-(4-methylpiperazin-1-yl)ethoxy)isoindolin-2-yl) methanone] | 100 to 1000

Now from value to compound:

IC50 [nM] | Compound
100 to 1000 | CN(C)CCOc1cc2c(c(N[C@@H]3CCOC3)c1)CN(C(=O)c1c(O)cc(Cl)cc1OCc1ccccc1)C2 [Example 9, (R)-(2-(Benzyloxy)-4-chloro-6-hydroxyphenyl)(6-(2-(dimethylamino)ethoxy)-4-((tetrahydrofuran-3-yl)amino)isoindolin-2-yl)methanone]
100 to 1000 | CN1CC(Oc2ccc3c(c2)CCN(C(=O)c2c(O)cc(C(F)F)cc2OCc2ccccc2)C3)C1 [Example 4.66, (2-(Benzyloxy)-4-(difluoromethyl)-6-hydroxyphenyl)(6-((1-methylazetidin-3-yl)oxy)-3,4-dihydroisoquinolin-2(1H)-yl)methanone]
100 to 1000 | CC(=O)N1CCC(Nc2cccc3c2CN(C(=O)c2c(O)cc(C#N)cc2OCc2ccccc2)C3)CC1 [Example 10.16, 4-(4-((1-Acetylpiperidin-4-yl)amino)isoindoline-2-carbonyl)-3-(benzyloxy)-5-hydroxybenzonitrile]
100 to 1000 | COc1ccc(COc2cc(C(F)F)cc(O)c2C(=O)N2Cc3cccc(N[C@H]4CCOC4)c3C2)cc1 [Example 4.8, (S)-(4-(Difluoromethyl)-2-hydroxy-6-((4-methoxybenzyl)oxy)phenyl)(4-((tetrahydrofuran-3-yl)amino)isoindolin-2-yl)methanone]
100 to 1000 | CN1CC(Nc2cccc3c2CN(C(=O)c2c(O)cc(C(F)F)cc2OCc2ccccc2)C3)C1 [Example 4.33]
100 to 1000 | CN1CC[C@@H](Oc2ccc3c(c2)CCN(C(=O)c2c(O)cc(C(F)F)cc2OCc2ccccc2)C3)C1 [Example 4.65, (R)-(2-(Benzyloxy)-4-(difluoromethyl)-6-hydroxyphenyl)(6-((1-methylpyrrolidin-3-yl)oxy)-3,4-dihydroisoquinolin-2(1H)yl)methanone]
100 to 1000 | O=C1OCCC1Nc1cccc2c1CN(C(=O)c1c(O)cc(C(F)F)cc1OCc1ccccc1)CC2 (centres unmarked) [Example 4.17, 3-((2-(2-(Benzyloxy)-4-(difluoromethyl)-6-hydroxybenzoyl)-1,2,3,4-tetrahydroisoquinolin-8-yl)amino) dihydrofuran-2(3H)-one]
100 to 1000 | CN1CC[C@@H](Nc2cccc3c2CN(C(=O)c2c(O)cc(C(F)F)cc2OCc2ccccc2)CC3)C1=O [Example 4.15, (R)-3-((2-(2-(Benzyloxy)-4-(difluoromethyl)-6-hydroxybenzoyl)-1,2,3,4-tetrahydroisoquinolin-8-yl)amino)-1-methylpyrrolidin-2-one]
100 to 1000 | COc1cc2c(c(N[C@@H]3CCOC3)c1)CN(C(=O)c1c(O)cc(C#N)cc1OCc1ccccc1)C2 [Example 10.13, (R)-3-(Benzyloxy)-5-hydroxy-4-(6-methoxy-4-((tetrahydrofuran-3-yl)amino)isoindoline-2-carbonyl)benzonitrile]
< 100 | CN(C)Cc1cc2c(c(N[C@H]3CCOC3)c1)CN(C(=O)c1c(O)cc(C(F)F)cc1OCc1ccccc1)CC2 [Example 4.21, (S)-(2-(Benzyloxy)-4-(difluoromethyl)-6-hydroxyphenyl)(6-((dimethylamino)methyl)-8-((tetrahydrofuran-3-yl)amino)-3,4-dihydroisoquinolin-2(1H)-yl)methanone]
1000 to 10000 | O=C(c1c(O)cc(C(F)F)cc1OCc1ccccc1)N1CCc2cc(NC3CCOC3)ccc21 (centres unmarked) [Example 27.5, (2-(Benzyloxy)-4-(difluoromethyl)-6-hydroxyphenyl)(5-((tetrahydrofuran-3-yl)amino)indolin-1-yl)methanone]
1000 to 10000 | O=C(c1c(O)cc(C(F)F)cc1OCc1nc2ccccc2[nH]1)N1CCc2cccc(N[C@H]3CCOC3)c2C1 [Example 28.4, (S)-(2-((1H-Benzo[d]imidazol-2-yl)methoxy)-4-(difluoromethyl)-6-hydroxyphenyl)(8-((tetrahydrofuran-3-yl)amino)-3,4-dihydroisoquinolin-2(1H)-yl)methanone]
